Measurements published in ChEMBL document CHEMBL1201862, “PubChem BioAssay data set” (2004).
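Five compound concentrations were applied to cells in 96-well plates for 48 hours; endpoints were derived by simple linear interpolation of the resulting dose-response curve. Here, GI50 denotes the concentration required for 50% inhibition of growth.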 Active and inactive are the calls of the source. No stated cut-off is given here; in the data, active = GI50 up to about 1.1 µM and inactive = higher.

How the values were obtained:
Experiment in all cases: growth of human tumour cells (NCI), 48 h
[1] = tested on: 786-0
[2] = tested on: A498
[3] = tested on: A549
[4] = tested on: ACHN
[5] = tested on: BT-549
[6] = tested on: CAKI-1
[7] = tested on: CCRF-CEM
[8] = tested on: COLO 205
[9] = tested on: DU-145
[10] = tested on: EKVX
[11] = tested on: HCC 2998
[12] = tested on: HCT-116
[13] = tested on: HCT-15
[14] = tested on: HL-60
[15] = tested on: HOP-62
[16] = tested on: HOP-92
[17] = tested on: HT-29
[18] = tested on: Hs-578T
[19] = tested on: IGROV-1
[20] = tested on: K562
[21] = tested on: KM12
[22] = tested on: LOX IMVI
[23] = tested on: M14
[24] = tested on: MCF7
[25] = tested on: MDA-MB-231
[26] = tested on: MDA-MB-435
[27] = tested on: MDA-N
[28] = tested on: MOLT-4
[29] = tested on: Malme-3M
[30] = tested on: NCI-H226
[31] = tested on: NCI-H23
[32] = tested on: NCI-H460
[33] = tested on: NCI-H522
[34] = tested on: NCI/ADR-RES
[35] = tested on: OVCAR-3
[36] = tested on: OVCAR-4
[37] = tested on: OVCAR-5
[38] = tested on: OVCAR-8
[39] = tested on: PC-3
[40] = tested on: RPMI-8226
[41] = tested on: SF-268
[42] = tested on: SF-295
[43] = tested on: SF-539
[44] = tested on: SK-MEL-28
[45] = tested on: SK-MEL-2
[46] = tested on: SK-MEL-5
[47] = tested on: SK-OV-3
[48] = tested on: SN12C
[49] = tested on: SNB-19
[50] = tested on: SNB-75
[51] = tested on: SR
[52] = tested on: SW-620
[53] = tested on: T47D
[54] = tested on: TK-10
[55] = tested on: U-251
[56] = tested on: UACC-257
[57] = tested on: UACC-62
[58] = tested on: UO-31

SMILES: CCCCCCCNC(P(=O)(O)O)P(=O)(O)O
- GI50 [1]: > 100 µM (inactive)
- GI50 [2]: > 100 µM (inactive)
- GI50 [3]: > 100 µM (inactive)
- GI50 [4]: > 100 µM (inactive)
- GI50 [5]: > 100 µM (inactive)
- GI50 [6]: > 100 µM (inactive)
- GI50 [7]: > 100 µM (inactive)
- GI50 [8]: > 100 µM (inactive)
- GI50 [9]: > 100 µM (inactive)
- GI50 [10]: > 100 µM (inactive)
- GI50 [11]: 56.2 µM (inactive)
- GI50 [12]: > 100 µM (inactive)
- GI50 [13]: > 100 µM
- GI50 [14]: > 100 µM (inactive)
- GI50 [15]: > 100 µM (inactive)
- GI50 [16]: > 100 µM (inactive)
- GI50 [17]: 54.7 µM (inactive)
- GI50 [18]: 34 µM (inactive)
- GI50 [19]: > 100 µM (inactive)
- GI50 [20]: > 100 µM (inactive)
- GI50 [21]: > 100 µM (inactive)
- GI50 [22]: > 100 µM (inactive)
- GI50 [23]: > 100 µM (inactive)
- GI50 [24]: > 100 µM (inactive)
- GI50 [25]: > 100 µM (inactive)
- GI50 [26]: > 100 µM (inactive)
- GI50 [27]: > 100 µM (inactive)
- GI50 [28]: > 100 µM (inactive)
- GI50 [29]: > 100 µM (inactive)
- GI50 [30]: > 100 µM (inactive)
- GI50 [31]: > 100 µM (inactive)
- GI50 [32]: > 100 µM (inactive)
- GI50 [33]: > 100 µM (inactive)
- GI50 [34]: > 100 µM (inactive)
- GI50 [35]: > 100 µM (inactive)
- GI50 [36]: > 100 µM (inactive)
- GI50 [37]: > 100 µM (inactive)
- GI50 [38]: > 100 µM (inactive)
- GI50 [39]: > 100 µM (inactive)
- GI50 [40]: 62.8 µM (inactive)
- GI50 [41]: > 100 µM (inactive)
- GI50 [42]: > 100 µM (inactive)
- GI50 [43]: > 100 µM (inactive)
- GI50 [44]: > 100 µM (inactive)
- GI50 [45]: > 100 µM (inactive)
- GI50 [46]: 97.3 µM (inactive)
- GI50 [47]: > 100 µM (inactive)
- GI50 [48]: > 100 µM (inactive)
- GI50 [49]: > 100 µM (inactive)
- GI50 [50]: 8.2 µM (inactive)
- GI50 [51]: > 100 µM (inactive)
- GI50 [52]: > 100 µM (inactive)
- GI50 [53]: > 100 µM (inactive)
- GI50 [54]: > 100 µM (inactive)
- GI50 [55]: > 100 µM (inactive)
- GI50 [56]: > 100 µM (inactive)
- GI50 [57]: > 100 µM (inactive)
- GI50 [58]: > 100 µM (inactive)
